The results in this text go back to patent US11497766B2, “Compositions and methods for treating or preventing diseases associated with oxidative stress” (CXL OPHTHALMICS, LLC, priority 2012, dated 2022).

The structures appear in SMILES notation.

The subject of this assay is eyes. The assay is described as follows: Corneal collagen cross-linking with riboflavin and sodium iodide; post-operative corneal haze. It counts as in vivo. The following applies: corneal collagen cross-linking utilizing 0.5% riboflavin and 0.015% (1 mmol) sodium iodide; over 200 eyes; compared to historical cross-linking procedures performed without sodium iodide. The procedure:
Corneal collagen cross-linking utilizing 0.5% riboflavin and 0.015% (1 mmol) sodium iodide was performed in over 200 eyes.

As to `[I-].[Na+]` [sodium iodide], the Post-operative corneal haze entry is given as “minimal”.
